Data as given in patent publication US20200399238A1, “THERAPEUTIC AURONES” (MIDDLE TENNESSEE STATE UNIVERSITY, priority 2016, published 2020).
Like-named read-outs stand apart in the source and are kept apart here.

Tests used:
[1] = system: C. albicans (ATCC strain 90028); assay: Antifungal microdilution broth assay (PrestoBlue), C. albicans; format: cell-based, Candida albicans; details: 100 μM; for inhibition at 100 µM: Candida albicans, ATCC90028, Table 4A, read-out: C. albicans inhibition (at 100 μM)
Protocol: Sigma-Aldrich) was used as the base medium for testing. […] solution of morpholinepropanesulfonic acid (MOPS; Sigma-Aldrich) was added to the RPMI to a final concentration of 0.165 M for buffering (RPMI-MOPS). This medium was adjusted to a pH of 7.0 with 10 M NaOH and filter sterilized. C. albicans (ATCC strain 90028), C. [NT] strain 66032), and C. tropicalis (ATCC strain 750) were cultured on potato dextrose agar (Sigma-Aldrich) plates, and incubated at 35° C. for 24 hours. For antifungal testing, overnight colonies were adjusted to 1.5×10^3 cells/mL, hereafter referred to as the test inoculum. PrestoBlue® (Life Technologies, Invitrogen, Carlsbad, Calif.), a resazurin-based cell viability reagent that, in metabolically active cells, is reduced from blue, non-fluorescent resazurin, to red, fluorescent resorufin, was used to assess inhibition of yeast growth by the aurones. […] Following addition of aurone, plates were then incubated for 24 hours at 35° C. PrestoBlue was added to a final concentration of 10% in each well and fluorescence read at 560 nm excitation and 590 nm emission, per manufacturer instructions, using a SpectraMax M2e spectrophotometer (Molecular Devices, LLC, Sunnyvale, Calif.). To optimize the PrestoBlue reduction time, RFUs were collected at 15 minute intervals for 4 hours using a reference antifungal. […] IC50 determination was calculated using GraphPad Prism version 7.01 for Windows (GraphPad Software, Inc., La Jolla, Calif.) from the RFUs at dilution points. Calculations were made with a nonlinear regression after transforming the molar concentrations of the aurones into the logarithmic form. Graphing was accomplished utilizing the same program following a four parameter curve fitting sigmoidal plot of the data. All aurones and controls were tested in triplicate and all testing was repeated in at least three independent experiments.

[2] = system: Trypanosoma cruzi Tulahuen cells expressing beta-galactosidase; assay: T. cruzi intracellular assay (beta-galactosidase, L6 host cells); details: for IC50: Trypanosoma cruzi, TULAHUEN
Protocol: Trypanosoma cruzi Tulahuen cells expressing beta-galactosidase (Buckner et al., Antimicrob. Agents Chemother. 40 (1996) 2592-2597) were cultured using the L6 cell line as a host cell. Adherent L6 cultures were infected with freshly burst T. cruzi trypomastigotes. Approximately 4-6 days later freshly burst trypomastigotes were collected and used to maintain cultures For assays, trypomastigotes were centrifuged to a loose pellet and incubated for 3 hours to allow the trypomastigote forms to swim out of the pellet. Cells were adjusted for addition to intracellular or extracellular assays. […] For intracellular assays, cells were added to adherent L6 cells using an infection ratio of 1:1 and immediately treated with compounds. At 96 hours incubations, a solution containing chlorophenol-red-B-D-beta-galactopyranosidase (Sigma) and a lysis agent were added. After an additional 2 hour incubation, a spectrophotometer was used to quantify the resulting color change (or lack thereof) which was used to calculate inhibition.
The percentage of cell inhibition was calculated using the formula: Percent Inhibition=1−((Treated Sample value−Medium only value)/(Untreated value−Medium only value))×100. Results are expressed as the mean of two or more independent trials.

[3] = system: Trypanosoma brucei brucei 427 cells; assay: T. brucei culture and assay (PrestoBlue); format: cell-based; details: mean of 2(+) independent trials, read-out: IC50 T. brucei
[4] = system: rat skeletal muscle cell line, L6; assay: cells; format: cell-based
Protocol: Cells were maintained in high glucose DMEM obtained from HyClone Laboratories (Logan, Utah) and supplemented with FCS and P/S at the same concentrations used for parasite culture. Cells were passaged every 3-4 days and maintained in a 37° C. humidified incubator in an atmosphere of 5% CO2. For assays. cells were detached, counted using a hemocytometer, and adjusted using fresh media to deliver 5×10^3 cells per well (90 μL) in black walled, flat clear bottom 96-well microtiter plates. After 3 h incubation for attachment, compounds diluted in culture medium were added (10 μL) to triplicate wells. Positive controls (cells treated with podophyllotoxin (Sigma, St. Louis, Mo.)), negative controls (untreated cells), solvent controls (DMSO) and media blanks were included on each plate. Following incubation for 71.5 h, 11 μL of PrestoBlue was added into each well.

[5] = system: Leishmania amazonensis promastigotes expressing beta-lactamase; assay: microbe, parasite or virus in culture; format: cell-based; details: for IC50: Leishmania amazonensis, read-out: IC50 L. amaz.
Protocol: Leishmania amazonensis promastigotes expressing beta-lactamase (Buckner et al., Am. J. Trop. Med. Hyg. 72 (2005) 600-605. doi:72/5/600 [pii]) were cultured in RPMI supplemented with 10% fetal calf serum and 1% pen-strep-glut solution (Sigma) at 27° C. Stationary phase promastigotes were adjusted in fresh media, treated with compounds, and incubated at 37° C. At 24 hours, 100 uL of cultures was added to 50 uL of the CellTiter Glo® solution. Luminescence readings were taken with a spectrophotometer and used to calculate inhibition.

[6] = read-out: IC50 T. cruzi, Table 1, intracellular assay, mean of 2(+) trials (^c one trial)
[7] = Rattus norvegicus, Table 1, read-out: IC50 Toxicity (L6)
[8] = read-out: IC50 T. cruzi, Table 2, intracellular assay, mean of 2(+) independent trials

## O=C1/C(=C/c2cc(Br)c(Br)s2)Oc2ccccc21 [Sample 9050]
[1]
  inhibition at 100 µM: 37.4%

## COc1ccc2c(c1)O/C(=C\c1ccc(C)cc1)C2=O [Sample 5002]
[1]
  inhibition at 100 µM: 37.6%

## O=C1/C(=C/c2ccc(CO)o2)Oc2ccccc21 [Sample 9067]
[1]
  inhibition at 100 µM: 17.6%

## COc1ccc(/C=C2\Oc3cc(O)ccc3C2=O)c(OC)c1OC [Sample 2912]
[1]
  inhibition at 100 µM: 54.8%

## COc1ccc2c(c1)O/C(=C\c1ccc[nH]1)C2=O [Aurone 5003]
[1]
  inhibition at 100 µM: 12.4%

## COc1ccc2c(c1)O/C(=C\c1ccc[nH]1)C2=O [Aurone 5004]
[1]; Table 4A
  C. albicans inhibition (at 100 μM): 14.7%

## O=C1/C(=C/c2ccc[nH]2)Oc2ccccc21 [Sample 2021]
[1]
  inhibition at 100 µM: 78.8%

## O=C1/C(=C/c2sccc2Br)Oc2ccccc21 [Sample 9060]
[1]
  inhibition at 100 µM: 7.5%

## O=C1/C(=C/c2cc(Br)cs2)Oc2ccccc21 [Sample 9061]
[1]
  inhibition at 100 µM: 3.1%

## COc1cc(OC)c2c(c1)O/C(=C\c1ccc([N+](=O)[O-])cc1)C2=O [Sample 7001]
[1]
  inhibition at 100 µM: 12.6%

## O=C1/C(=C/c2cccs2)Oc2c1ccc(O)c2O [Sample 1001]
[1]
  inhibition at 100 µM: 26%

## O=C1/C(=C/c2ccco2)Oc2ccccc21 [Sample 2023]
[1]
  inhibition at 100 µM: 88.5%

## COc1ccc2c(c1)O/C(=C\c1ccc(Br)cc1)C2=O [Sample 5005]
[1]
  inhibition at 100 µM: 22.4%

## COc1ccc2c(c1)O/C(=C\c1ccc(C#N)cc1)C2=O [Sample 5006]
[1]
  inhibition at 100 µM: 19.4%

## O=C1/C(=C/c2cccc3[nH]ccc23)Oc2ccccc21 [Sample 9063]
[1]
  inhibition at 100 µM: 24%

## Cc1ccc(/C=C2\Oc3ccc(Br)cc3C2=O)cc1 [Sample 6000]
[1]
  inhibition at 100 µM: 6.1%

## O=C1/C(=C/c2ncc[nH]2)Oc2ccccc21 [Sample 2026]
[1]
  inhibition at 100 µM: 43.8%

## COc1cc(OC)c2c(c1)O/C(=C\c1ccc(C)cc1)C2=O [Sample 7000]
[1]
  inhibition at 100 µM: 45.6%

## O=C1/C(=C/c2c[nH]c3ccccc23)Oc2ccccc21 [Sample 9062]
[1]
  inhibition at 100 µM: 16.4%

## O=C1/C(=C/c2ccc(Br)cc2)Oc2cc(O)ccc21 [Sample 2905]
[1]
  inhibition at 100 µM: 16.6%

## N#Cc1ccc(/C=C2\Oc3cc(O)ccc3C2=O)cc1 [Sample 9076]
[1]
  inhibition at 100 µM: 7.5%

## COc1ccc(/C=C2\Oc3cc(O)ccc3C2=O)cc1O [Sample 2911]
[1]
  inhibition at 100 µM: 40%

## COc1ccc(/C=C2\Oc3c(ccc(O)c3O)C2=O)cc1O [Sample 1009]
[1]
  inhibition at 100 µM: 99.4%

## O=C1/C(=C/c2cccs2)Oc2cc(O)ccc21 [Sample 2901]
[1]
  inhibition at 100 µM: 46.1%

## O=C1/C(=C/c2cccs2)Oc2ccccc21 [Sample 2004]
[1]
  inhibition at 100 µM: 65.9%

## Cc1ccc(/C=C2\Oc3cc(O)ccc3C2=O)cc1 [Sample 2904]
[1]
  inhibition at 100 µM: 20%

## N#Cc1ccccc1/C=C1\Oc2ccccc2C1=O [Aurone 3007, (Z)-2-((3-oxobenzofuran-2(3H)-ylidene)methyl)benzonitrile]
[2]; Table 1, intracellular T. cruzi IC50
  Selectivity L6/Tc: >2.14
[2]; Table 3A, estimated from highest L6 dose tested where no L6 IC50
  Selectivity L6/TC-I: >2.14
[2]; [6]
  IC50: 46.6 µM
[2]; read-out: IC50 TC-I, Table 3A, weighted means of two or more independent trials
  IC50: 46.6 µM
[3]; Trypanosoma brucei, Table 1
  IC50: > 50 µM
[4]; [7]
  IC50: > 100 µM
[4]; Rattus norvegicus, Table 3A, weighted means of two or more independent trials, read-out: IC50 L6
  IC50: > 100 µM
[5]
  IC50: 17.6 µM
[5]; Table 1
  Selectivity L6/La: >5.69

## O=C1/C(=C/c2ccc(C(F)(F)F)cc2)Oc2cc(O)ccc21 [Aurone 2909, (Z)-6-hydroxy-2-(4-(trifluoromethyl)benzylidene)benzofuran-3(2H)-one]
[2]; [6]
  IC50: > 50 µM
[2]; [8]
  IC50: > 50 µM
[3]; Table 2
  IC50: > 50 µM
[3]; Trypanosoma brucei, Table 1
  IC50: > 50 µM
[4]; [7]
  IC50: > 100 µM
[4]; Table 2, L6 mammalian cells, read-out: IC50 Toxicity (L6)
  IC50: > 100 µM
[5]
  IC50: 3.97 µM
[5]; Table 1
  Selectivity L6/La: >25.19
[5]; Table 2, L6 IC50 / L. amazonensis IC50
  Selectivity L6/La: >25.19

## COc1ccc(/C=C2\Oc3cc(O)ccc3C2=O)cc1O [Aurone 2911, (Z)-6-hydroxy-2-(3-hydroxy-4-methoxybenzylidene)benzofuran-3(2H)-one]
[2]; [6]
  IC50: > 50 µM
[2]; [8]
  IC50: > 50 µM
[3]; Trypanosoma brucei, Table 1
  IC50: > 50 µM
[4]; [7]
  IC50: 52.6 µM
[5]
  IC50: 6.51 µM

## O=C1/C(=C/c2ccccc2)Nc2ccccc21 [AA8]
[2]; [6]
  IC50: 16.8 µM
[2]; [8]
  IC50: 16.8 µM
[3]; Trypanosoma brucei, Table 1
  IC50: 11.7 µM
[4]; [7]
  IC50: > 100 µM
[5]
  IC50: < 1 µM
